Key:
[1] = target: Tyrosine-protein kinase ITK/TSK (Homo sapiens) (UniProt Q08881); experiment: Inhibition of human Itk at 10 uM after 60 mins by TR-FRET assay; settings: values are per cent of control
[2] = target: Tyrosine-protein kinase Yes (Homo sapiens) (UniProt P07947); experiment: Inhibition of human Yes at 10 uM after 60 mins by TR-FRET assay; values are per cent of control
[3] = target: RAC-beta serine/threonine-protein kinase (Homo sapiens) (UniProt P31751); experiment: Inhibition of human PKBbeta at 10 uM after 60 mins by TR-FRET assay; values are per cent of control
[4] = target: Tyrosine-protein kinase Fes/Fps (Homo sapiens) (UniProt P07332); experiment: Inhibition of human Fes at 10 uM after 60 mins by TR-FRET assay; values are per cent of control
[5] = target: Death-associated protein kinase 3 (Homo sapiens) (UniProt O43293); experiment: Inhibition of human ZIPK at 10 uM after 60 mins by TR-FRET assay; values are per cent of control
[6] = target: RAC-alpha serine/threonine-protein kinase (Homo sapiens) (UniProt P31749); experiment: Inhibition of human PKBalpha at 10 uM after 60 mins by TR-FRET assay; values are per cent of control
[7] = target: Serine/threonine-protein kinase 4 (Homo sapiens) (UniProt Q13043); experiment: Inhibition of human MST1 at 10 uM after 60 mins by TR-FRET assay; settings: values are per cent of control
[8] = target: Serine/threonine-protein kinase 17B (Homo sapiens) (UniProt O94768); experiment: Inhibition of human DYRK2 at 10 uM after 60 mins by TR-FRET assay; values are per cent of control
[9] = target: Rho-associated protein kinase 2 (Rattus norvegicus) (UniProt Q62868); experiment: Inhibition of rat ROCK-2 at 10 uM after 60 mins by TR-FRET assay; values are per cent of control
[10] = target: Protein kinase C delta type (Homo sapiens) (UniProt Q05655); experiment: Inhibition of human PKCdelta at 10 uM after 60 mins by TR-FRET assay; values are per cent of control
[11] = target: Serine/threonine-protein kinase mTOR (Homo sapiens) (UniProt P42345); experiment: Inhibition of human mTOR at 10 uM after 60 mins by TR-FRET assay; settings: values are per cent of control
[12] = target: Protein kinase C epsilon type (Homo sapiens) (UniProt Q02156); experiment: Inhibition of human PKCepsilon at 10 uM after 60 mins by TR-FRET assay; values are per cent of control
Protein kinase C epsilon type (Homo sapiens), sequence (Q02156 whole entry): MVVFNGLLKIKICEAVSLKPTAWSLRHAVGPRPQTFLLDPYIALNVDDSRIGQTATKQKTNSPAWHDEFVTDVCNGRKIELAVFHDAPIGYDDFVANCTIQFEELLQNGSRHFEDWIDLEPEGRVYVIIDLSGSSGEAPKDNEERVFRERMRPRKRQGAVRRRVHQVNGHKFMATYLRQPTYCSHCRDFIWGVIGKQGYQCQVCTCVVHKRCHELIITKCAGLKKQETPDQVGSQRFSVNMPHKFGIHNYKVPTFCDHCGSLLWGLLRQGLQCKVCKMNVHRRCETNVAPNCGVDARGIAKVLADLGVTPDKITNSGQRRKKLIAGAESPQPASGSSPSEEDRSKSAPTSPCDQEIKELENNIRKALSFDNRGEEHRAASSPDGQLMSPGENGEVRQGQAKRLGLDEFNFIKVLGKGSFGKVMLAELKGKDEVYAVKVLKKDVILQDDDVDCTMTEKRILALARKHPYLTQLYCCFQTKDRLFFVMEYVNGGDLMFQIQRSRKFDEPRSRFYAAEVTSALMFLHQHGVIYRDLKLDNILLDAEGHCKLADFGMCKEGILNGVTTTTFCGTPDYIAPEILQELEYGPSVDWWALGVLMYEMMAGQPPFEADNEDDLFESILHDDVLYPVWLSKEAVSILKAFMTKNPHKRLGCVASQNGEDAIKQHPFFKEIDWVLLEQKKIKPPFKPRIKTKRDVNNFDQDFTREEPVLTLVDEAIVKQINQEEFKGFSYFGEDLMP

[13] = target: Mitogen-activated protein kinase 13 (Homo sapiens) (UniProt O15264); experiment: Inhibition of human SAPK4 at 10 uM after 60 mins by TR-FRET assay; settings: values are per cent of control
[14] = target: Protein kinase C beta type (Homo sapiens) (UniProt P05771); experiment: Inhibition of human PKCbeta2 at 10 uM after 60 mins by TR-FRET assay; values are per cent of control
[15] = target: Tyrosine-protein kinase JAK3 (Homo sapiens) (UniProt P52333); experiment: Inhibition of human JAK3 at 10 uM after 60 mins by TR-FRET assay; settings: values are per cent of control
[16] = target: Testis-specific serine/threonine-protein kinase 2 (Homo sapiens) (UniProt Q96PF2); experiment: Inhibition of human TSSK2 at 10 uM after 60 mins by TR-FRET assay; values are per cent of control
[17] = target: Serine/threonine-protein kinase 33 (Homo sapiens) (UniProt Q9BYT3); experiment: Inhibition of human STK33 at 10 uM after 60 mins by TR-FRET assay; values are per cent of control
[18] = target: Glycogen synthase kinase-3 alpha (Homo sapiens) (UniProt P49840); experiment: Inhibition of human GSK3alpha at 10 uM after 60 mins by TR-FRET assay; values are per cent of control
[19] = target: Serine/threonine-protein kinase PLK2 (Homo sapiens) (UniProt Q9NYY3); experiment: Inhibition of human Snk at 10 uM after 60 mins by TR-FRET assay; settings: values are per cent of control
Serine/threonine-protein kinase PLK2 (Homo sapiens), sequence (Q9NYY3 whole entry, looked up): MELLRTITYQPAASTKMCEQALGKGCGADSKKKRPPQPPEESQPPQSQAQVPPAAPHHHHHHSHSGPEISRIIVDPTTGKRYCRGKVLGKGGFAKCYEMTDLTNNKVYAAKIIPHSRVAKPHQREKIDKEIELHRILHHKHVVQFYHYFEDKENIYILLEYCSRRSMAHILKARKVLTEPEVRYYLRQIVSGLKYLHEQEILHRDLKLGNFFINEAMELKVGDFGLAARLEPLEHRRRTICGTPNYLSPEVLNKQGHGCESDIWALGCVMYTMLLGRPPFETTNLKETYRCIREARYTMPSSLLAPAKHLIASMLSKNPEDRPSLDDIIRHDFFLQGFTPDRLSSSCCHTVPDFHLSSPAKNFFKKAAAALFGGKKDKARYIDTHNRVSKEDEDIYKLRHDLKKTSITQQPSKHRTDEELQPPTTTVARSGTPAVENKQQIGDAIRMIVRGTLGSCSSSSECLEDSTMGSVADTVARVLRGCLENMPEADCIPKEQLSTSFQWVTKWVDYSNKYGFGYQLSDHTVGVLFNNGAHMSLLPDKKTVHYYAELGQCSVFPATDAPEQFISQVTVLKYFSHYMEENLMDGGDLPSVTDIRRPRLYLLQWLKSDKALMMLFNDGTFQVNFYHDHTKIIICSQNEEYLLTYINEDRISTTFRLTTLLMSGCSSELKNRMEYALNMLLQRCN

[20] = target: Protein kinase C theta type (Homo sapiens) (UniProt Q04759); experiment: Inhibition of human PKCtheta at 10 uM after 60 mins by TR-FRET assay; values are per cent of control
[21] = target: CDK3/cyclin E (Homo sapiens) (UniProt P24864+O96020+Q00526); experiment: Inhibition of human CDK3/cyclinE at 10 uM after 60 mins by TR-FRET assay; values are per cent of control
CDK3/cyclin E (Homo sapiens), sequence (O96020 whole entry, looked up): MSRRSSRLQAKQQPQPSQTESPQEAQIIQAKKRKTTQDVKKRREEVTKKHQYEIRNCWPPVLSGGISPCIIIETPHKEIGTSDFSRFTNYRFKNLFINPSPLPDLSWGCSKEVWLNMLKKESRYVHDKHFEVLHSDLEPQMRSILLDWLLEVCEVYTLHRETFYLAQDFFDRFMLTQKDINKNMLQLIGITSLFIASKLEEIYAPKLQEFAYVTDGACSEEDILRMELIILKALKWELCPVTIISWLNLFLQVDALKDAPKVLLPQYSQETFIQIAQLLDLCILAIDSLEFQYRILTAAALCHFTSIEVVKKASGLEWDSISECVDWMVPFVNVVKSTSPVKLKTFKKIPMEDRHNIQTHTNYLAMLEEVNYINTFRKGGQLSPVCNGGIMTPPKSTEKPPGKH
CDK3/cyclin E (Homo sapiens), sequence (P24864 whole entry, looked up): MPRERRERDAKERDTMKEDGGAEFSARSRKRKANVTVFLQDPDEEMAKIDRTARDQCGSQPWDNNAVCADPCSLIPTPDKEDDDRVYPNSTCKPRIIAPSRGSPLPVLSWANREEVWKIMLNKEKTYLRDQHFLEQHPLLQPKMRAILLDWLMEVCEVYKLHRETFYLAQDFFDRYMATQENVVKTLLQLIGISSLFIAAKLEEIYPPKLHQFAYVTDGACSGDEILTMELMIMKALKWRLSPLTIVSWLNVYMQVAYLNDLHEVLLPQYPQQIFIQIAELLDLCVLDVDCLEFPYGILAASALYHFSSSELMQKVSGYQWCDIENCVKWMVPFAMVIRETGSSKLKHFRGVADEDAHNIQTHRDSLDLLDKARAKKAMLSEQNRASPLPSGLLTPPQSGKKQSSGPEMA
CDK3/cyclin E (Homo sapiens), sequence (Q00526 whole entry, looked up): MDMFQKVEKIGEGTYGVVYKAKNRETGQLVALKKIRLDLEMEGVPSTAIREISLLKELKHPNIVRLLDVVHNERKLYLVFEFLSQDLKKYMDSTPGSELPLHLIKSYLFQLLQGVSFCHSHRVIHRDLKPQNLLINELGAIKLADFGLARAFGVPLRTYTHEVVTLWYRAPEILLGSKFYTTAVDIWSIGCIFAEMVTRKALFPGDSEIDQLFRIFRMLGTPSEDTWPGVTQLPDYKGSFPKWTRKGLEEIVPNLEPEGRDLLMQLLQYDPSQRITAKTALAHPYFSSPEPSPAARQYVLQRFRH

[22] = target: Tyrosine-protein kinase Fer (Homo sapiens) (UniProt P16591); experiment: Inhibition of human Fer at 10 uM after 60 mins by TR-FRET assay; values are per cent of control
[23] = target: Casein kinase II subunit alpha' (Homo sapiens) (UniProt P19784); experiment: Inhibition of human CK2a2 at 10 uM after 60 mins by TR-FRET assay; values are per cent of control
[24] = target: Serine/threonine-protein kinase tousled-like 2 (Homo sapiens) (UniProt Q86UE8); experiment: Inhibition of human TLK2 at 10 uM after 60 mins by TR-FRET assay; values are per cent of control
[25] = target: Calcium/calmodulin-dependent protein kinase type 1D (Homo sapiens) (UniProt Q8IU85); experiment: Inhibition of human CaMK1delta at 10 uM after 60 mins by TR-FRET assay; values are per cent of control
[26] = target: Receptor-interacting serine/threonine-protein kinase 2 (Homo sapiens) (UniProt O43353); experiment: Inhibition of human RIPK2 at 10 uM after 60 mins by TR-FRET assay; values are per cent of control
[27] = target: Serine/threonine-protein kinase PAK 2 (Homo sapiens) (UniProt Q13177); experiment: Inhibition of human PAK2 at 10 uM after 60 mins by TR-FRET assay; values are per cent of control
Serine/threonine-protein kinase PAK 2 (Homo sapiens), sequence (Q13177 whole entry): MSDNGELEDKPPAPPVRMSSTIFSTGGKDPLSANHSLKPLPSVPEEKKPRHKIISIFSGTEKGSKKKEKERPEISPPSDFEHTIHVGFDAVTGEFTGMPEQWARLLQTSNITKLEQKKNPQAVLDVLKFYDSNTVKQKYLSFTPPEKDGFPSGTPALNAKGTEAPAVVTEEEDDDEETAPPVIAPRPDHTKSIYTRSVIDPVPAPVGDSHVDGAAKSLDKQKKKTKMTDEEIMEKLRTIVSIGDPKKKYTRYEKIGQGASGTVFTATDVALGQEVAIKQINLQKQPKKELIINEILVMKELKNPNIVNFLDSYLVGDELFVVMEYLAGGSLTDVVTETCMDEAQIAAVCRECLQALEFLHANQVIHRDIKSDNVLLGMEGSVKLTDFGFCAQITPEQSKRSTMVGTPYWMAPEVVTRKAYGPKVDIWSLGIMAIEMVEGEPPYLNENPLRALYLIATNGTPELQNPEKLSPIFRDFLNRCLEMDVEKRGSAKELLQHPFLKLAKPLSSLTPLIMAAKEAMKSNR

[28] = target: Serine/threonine-protein kinase D2 (Homo sapiens) (UniProt Q9BZL6); experiment: Inhibition of human PKD2 at 10 uM after 60 mins by TR-FRET assay; values are per cent of control
[29] = target: Casein kinase I isoform gamma-3 (Homo sapiens) (UniProt Q9Y6M4); experiment: Inhibition of human CK1gamma3 at 10 uM after 60 mins by TR-FRET assay; values are per cent of control
Casein kinase I isoform gamma-3 (Homo sapiens), sequence (Q9Y6M4 whole entry, looked up, canonical isoform): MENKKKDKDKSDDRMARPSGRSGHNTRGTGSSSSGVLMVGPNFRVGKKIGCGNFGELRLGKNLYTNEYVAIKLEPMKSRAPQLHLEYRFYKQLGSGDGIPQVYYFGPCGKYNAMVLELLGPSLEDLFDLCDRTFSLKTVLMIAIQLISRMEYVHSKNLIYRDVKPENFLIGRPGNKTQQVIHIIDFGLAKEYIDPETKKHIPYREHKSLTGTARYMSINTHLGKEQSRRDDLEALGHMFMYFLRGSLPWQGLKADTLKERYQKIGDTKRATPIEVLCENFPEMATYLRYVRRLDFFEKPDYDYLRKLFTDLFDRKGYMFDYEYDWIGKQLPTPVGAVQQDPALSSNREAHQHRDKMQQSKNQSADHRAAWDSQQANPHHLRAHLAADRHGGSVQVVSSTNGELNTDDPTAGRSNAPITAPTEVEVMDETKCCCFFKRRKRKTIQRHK

Tyrosine-protein kinase ITK/TSK (Homo sapiens), sequence (Q08881 whole entry): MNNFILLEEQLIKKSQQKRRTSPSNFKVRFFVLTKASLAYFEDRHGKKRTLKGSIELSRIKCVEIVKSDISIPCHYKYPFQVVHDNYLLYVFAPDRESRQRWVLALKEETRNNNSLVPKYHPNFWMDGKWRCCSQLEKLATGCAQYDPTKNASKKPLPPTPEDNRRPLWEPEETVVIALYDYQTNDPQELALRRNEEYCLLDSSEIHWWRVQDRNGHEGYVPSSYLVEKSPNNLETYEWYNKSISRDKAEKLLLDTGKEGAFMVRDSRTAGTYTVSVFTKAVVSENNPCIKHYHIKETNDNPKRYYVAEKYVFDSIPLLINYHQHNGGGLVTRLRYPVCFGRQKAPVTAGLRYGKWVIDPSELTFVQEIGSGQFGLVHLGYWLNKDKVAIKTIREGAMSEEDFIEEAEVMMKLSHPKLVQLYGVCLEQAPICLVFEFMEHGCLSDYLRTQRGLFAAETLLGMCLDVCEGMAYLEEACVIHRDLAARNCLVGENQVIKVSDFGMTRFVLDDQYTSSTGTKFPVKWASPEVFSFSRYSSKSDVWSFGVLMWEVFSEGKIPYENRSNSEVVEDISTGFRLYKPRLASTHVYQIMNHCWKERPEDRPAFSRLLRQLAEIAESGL
Tyrosine-protein kinase Yes (Homo sapiens), sequence (P07947 2-543 limits assumed): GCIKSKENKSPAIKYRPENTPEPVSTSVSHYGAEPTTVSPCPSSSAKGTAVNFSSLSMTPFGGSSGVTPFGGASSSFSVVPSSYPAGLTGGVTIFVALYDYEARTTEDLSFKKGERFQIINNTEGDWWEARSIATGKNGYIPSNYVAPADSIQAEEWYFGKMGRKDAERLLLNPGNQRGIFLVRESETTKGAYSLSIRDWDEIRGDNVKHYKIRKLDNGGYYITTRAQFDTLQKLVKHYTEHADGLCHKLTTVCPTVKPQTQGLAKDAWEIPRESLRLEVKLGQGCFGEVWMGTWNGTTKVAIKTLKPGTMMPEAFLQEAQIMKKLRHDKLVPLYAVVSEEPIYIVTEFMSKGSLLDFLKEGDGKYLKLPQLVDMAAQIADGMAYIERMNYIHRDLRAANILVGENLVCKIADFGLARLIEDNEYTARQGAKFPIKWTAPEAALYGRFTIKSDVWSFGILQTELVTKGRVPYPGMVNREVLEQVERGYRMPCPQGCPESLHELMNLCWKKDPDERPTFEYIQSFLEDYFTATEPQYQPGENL

residual activity [1]: 103%
residual activity [2]: 107%
residual activity [3]: 110%
residual activity [4]: 97%
residual activity [6]: 99%
residual activity [7]: 112%
residual activity [8]: 104%
residual activity [9]: 101%
residual activity [10]: 111%
residual activity [11]: 98%
residual activity [12]: 100%
residual activity [13]: 111%
residual activity [14]: 105%
residual activity [15]: 147%
residual activity [16]: 107%
residual activity [17]: 107%
residual activity [18]: 85%
residual activity [19]: 113%
residual activity [20]: 114%
residual activity [21]: 94%
residual activity [22]: 99%
residual activity [23]: 108%
residual activity [24]: 110%
residual activity [25]: 104%
residual activity [26]: 111%
residual activity [27]: 108%
residual activity [28]: 110%
residual activity [29]: 108%
Compound: S=c1[nH]nc(-c2ccncc2)n1-c1ccc2ccccc2c1
residual activity [5]: 103%
